Test results published in patent publication US20040171086A1, “Selective modulation of TLR-mediated biological activity” (3M Innovative Properties Company, priority 2003, published 2004).

Each molecule was assayed against T1, human TLR8 (Homo sapiens, UniProt Q9NR97) (assay: NFκB-luciferase reporter assay in HEK293 cells transfected with human TLR8 (HEK293-TLR8)). Settings: HEK293-TLR8, 10 μM IRM, 16 hours.
T1 construct: expressed in transfected cells; host or cells: HEK293 (ATCC CRL-1573), pIRES vector, G-418 selected
T1 sequence (Q9NR97 27-1041): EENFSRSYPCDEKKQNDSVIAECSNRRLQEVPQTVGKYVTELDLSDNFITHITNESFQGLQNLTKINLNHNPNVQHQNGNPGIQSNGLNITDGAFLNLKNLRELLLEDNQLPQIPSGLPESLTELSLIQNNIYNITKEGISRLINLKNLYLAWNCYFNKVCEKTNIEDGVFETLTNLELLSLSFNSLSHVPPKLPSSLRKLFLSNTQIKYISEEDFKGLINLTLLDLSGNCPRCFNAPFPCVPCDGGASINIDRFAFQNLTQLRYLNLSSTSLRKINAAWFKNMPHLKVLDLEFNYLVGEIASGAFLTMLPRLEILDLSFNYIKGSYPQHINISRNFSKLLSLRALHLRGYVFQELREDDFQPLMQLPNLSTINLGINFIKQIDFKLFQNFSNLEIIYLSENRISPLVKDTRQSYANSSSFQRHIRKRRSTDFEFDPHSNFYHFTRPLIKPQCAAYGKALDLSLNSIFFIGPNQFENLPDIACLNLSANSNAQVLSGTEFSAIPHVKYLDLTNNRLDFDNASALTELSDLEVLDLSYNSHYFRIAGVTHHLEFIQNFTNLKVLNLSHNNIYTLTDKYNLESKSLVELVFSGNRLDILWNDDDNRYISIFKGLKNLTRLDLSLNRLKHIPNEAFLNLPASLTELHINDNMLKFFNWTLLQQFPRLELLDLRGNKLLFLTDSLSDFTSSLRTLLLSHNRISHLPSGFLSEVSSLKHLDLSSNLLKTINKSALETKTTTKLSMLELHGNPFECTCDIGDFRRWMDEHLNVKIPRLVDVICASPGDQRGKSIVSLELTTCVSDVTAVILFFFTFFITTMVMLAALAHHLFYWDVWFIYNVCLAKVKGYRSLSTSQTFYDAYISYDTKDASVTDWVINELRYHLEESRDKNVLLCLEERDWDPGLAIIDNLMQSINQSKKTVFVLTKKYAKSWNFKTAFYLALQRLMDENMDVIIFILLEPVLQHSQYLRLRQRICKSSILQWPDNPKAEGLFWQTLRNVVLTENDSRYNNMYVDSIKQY
Type: cell-based
Protocol: A compound was identified as increasing cellular activity mediated through a given TLR if it induced at least a two-fold increase in NFκB-induced luciferase signal compared to the control.
HEK293 medium was prepared from 90% Minimum Essential Medium (MEM) with 2 mM L-glutamine and Earle's Balanced Salt Solution (Invitrogen Corp., Rockville, Md.) adjusted to contain 1.5 g/L sodium bicarbonate, 0.1 mM non-essential amino acids, and 1.0 mM sodium pyruvate; 10% heat-inactivated fetal calf serum. HEK293 cells were cultured by incubating cells in HEK293 medium overnight at 37° C., 8% CO2.
The cells were co-transfected with (1) pIRES (BD Biosciences Clontech, Palo Alto, Calif.) either (a) unmodified (HEK293-vector), (b) containing an expressible human TLR7 gene (HEK293-TLR7), or (c) containing an expressible human TLR8 gene (HEK293-TLR8), and (2) NFκB-luc reporter (Stratagene, La Jolla, Calif.) in a 10:1 ratio with Fugene 6 transfection reagent (Roche Diagnostics Corp., Indianapolis, Ind.) following the manufacturer's instructions.
The cells were stimulated with 1 μL of IRM compounds at 1 mM in DMSO (final IRM concentration of 10 μM) or 1 μL DMSO as a control. The plates were then incubated an additional 16 hours at 37° C., 5% CO2. The luciferase signal was read using the LucLite kit (Packard Instrument Co., Meriden, Conn.). Luminescence was measured on an LMAX luminometer (Molecular Devices Corp., Sunnyvale, Calif.).

SMILES	TLR8: fold increase of NFκB-induced luciferase signal compared to a DMSO control [fold increase]
COCCc1nc2c(N)nc3ccccc3c2n1CCOCCN(C)C(=O)C1CCCCC1 [IRM3, N-(2-{2-[4-amino-2-(2-methoxyethyl)-1H-imidazo[4,5-c]quinolin-1-yl]ethoxy}ethyl)-N-methylcyclohexanecarboxamide]	1.14
CCCCc1nc2c(N)nc3ccccc3c2n1CCCCCS(C)(=O)=O [IRM6, 2-butyl-1-[5-(methylsulfonyl)pentyl]-1H-imidazo[4,5-c]quinolin-4-amine]	0.90
CCC(C)NC(=S)NCCn1c(CCOC)nc2c(N)nc3ccccc3c21 (stereo not drawn) [IRM21, N-{2-[4-amino-2-(2-methoxyethyl)-1H-imidazo[4,5-c]quinolin-1-yl]ethyl}-N′-sec-butylthiourea]	5.92
COCCc1nc2c(N)nc3c(c2n1CC(C)(C)NS(C)(=O)=O)CCCC3 [IRM22, N-{2-[4-amino-2-(2-methoxyethyl)-6,7,8,9-tetrahydro-1H-imidazo[4,5-c]quinolin-1-yl]-1,1-dimethylethyl}methanesulfonamide]	7.37

Second part, the molecule after the results:

TLR8: fold increase of NFκB-induced luciferase signal compared to a DMSO control [fold increase]	SMILES
1.02	CCOCc1nc2c(N)nc3ccccc3c2n1CC(C)C [IRM1, 2-(ethoxymethyl)-1-(2-methylpropyl)-1H-imidazo[4,5-c]quinolin-4-amine]
0.99	CCc1nc2c(N)nc3ccccc3c2n1CCCCNC(=O)C1CCCCC1 [IRM8, N-[4-(4-amino-2-ethyl-1H-imidazo[4,5-c]quinolin-1-yl)butyl]cyclohexanecarboxamide]
4.18	CCc1nc2c(N)nc3ccccc3c2n1CCCCSc1cc(Cl)cc(Cl)c1 [IRM14, 1-{4-[(3,5-dichlorophenyl)thio]butyl}-2-ethyl-1H-imidazo[4,5-c]quinolin-4-amine]
8.64	CCOCc1nc2c(N)nc3c(c2n1CC(C)(C)O)CCCC3 [IRM16, 4-amino-2-ethoxymethyl-α,α-dimethyl-6,7,8,9-tetrahydro-1H-imidazo[4,5-c]quinoline-1-ethanol]
7.25	COCCc1nc2c(N)nc3ccccc3c2n1CCOCCNC(=O)Nc1ccccc1 [IRM19, N-(2-{2-[4-amino-2-(2-methoxyethyl)-1H-imidazo[4,5-c]quinolin-1-yl)ethoxy}ethyl)-N′-phenylurea]
